According to article PMC12713470, “Design and Synthesis of Novel Chalcone Derivatives Targeting Bladder and Liver Cancer: Cytotoxicity Evaluation and Preliminary Mechanistic Studies” (ACS Omega, 2025):

What was measured:
[1] = tested on: MRC-5: human lung fibroblast cells; assay: MTT cytotoxicity assay on MRC-5 cells; format: cell-based; conditions: MRC5, 24 h incubation, n = 3, ± standard deviation
Method: (§1) Cytotoxicity was determined using the MTT colorimetric assay, and half-maximal inhibitory concentrations (IC50, μM) were obtained for all cell lines (Table ). The selectivity index (SI) was calculated as the ratio of IC50 MRC-5/IC50 cancer cell line. Doxorubicin was employed as a positive control due to its broad-spectrum clinical use, either alone or in combination, against hepatocellular, ovarian, cervical, and bladder cancers. −
(§2) In vitro biological assays were performed by using five human cell lines for cytotoxicity evaluation. HepG2 cells (ATCC HB-8065), derived from a human hepatocellular carcinoma of the liver (person), were cultured in Dulbecco’s modified Eagle medium (DMEM) supplemented with 5% fetal bovine serum (FBS), penicillin/streptomycin (100 IU/mL), and amphotericin B (5 μg/mL), in a humidified incubator with 5% CO2 at 37 °C. These cells were plated at a concentration of 2.0 × 10^4 cells/well in 96-well microplates. MRC-5 cells (ATCC CCL-171), derived from human lung fibroblasts of a […] fetus, were cultured under the same conditions and plated at 1.0 × 10^4 cells/well. T24 cells (ATCC HTB-4), established from a transitional cell carcinoma of the bladder (person), were also cultured under identical conditions and plated at a density of 1.0 × 10^4 cells/well. TOV-21G cells (ATCC CRL-11730), derived from a primary malignant ovarian adenocarcinoma (person), were maintained in DMEM with the same supplementation and environmental conditions and plated at 5.0 × 10^4 cells/well. […]
(§3) HeLa, HepG2, MRC-5, T24, and TOV-21G cells were suspended in a culture medium supplemented with 5% fetal bovine serum (FBS) and seeded into 96-well microplates. The plates were incubated under a humidified atmosphere containing 5% CO2 at 37 °C for 24 h, allowing for adherence and monolayer formation. , Eight serial dilutions of the test samples, previously solubilized in dimethyl sulfoxide (DMSO), were prepared in DMEM supplemented with 1% FBS, covering a concentration range from […], and the results were converted to […]. The volume of DMSO in each well was limited to a final concentration not exceeding 2%. Following monolayer formation, the culture medium was aspirated and replaced with 100 μL of the diluted test samples and 100 μL of DMEM containing 1% FBS. The plates were then incubated under the same atmospheric and temperature conditions.
(§4) Two hours prior to end point reading, 20 μL of MTT [3-(4,5-dimethylthiazol-2-yl)-2,5-diphenyltetrazolium bromide] solution (1.0 mg/mL in sterile phosphate-buffered saline, Sigma-Aldrich) was added to each well. The incubation period following sample addition varied according to the cell line: 24 h for MRC-5, 48 h for T24, and 72 h for HeLa, HepG2, and TOV-21G. After the appropriate incubation, absorbance was measured by using a VICTOR X3 microplate reader (PerkinElmer), and data were processed with WorkOut 2.5 software at a wavelength of 490 nm. Formazan formation, resulting from the MTT reduction by metabolically active cells, was used as an indirect measure of cell viability. The percentage of cytotoxicity was calculated using the equation % cytotoxicity = [(A – B)/A] × 100, where A is the optical density (OD4 9 0) of untreated control cells and B is the OD4 9 0 of treated cells.
(§5) Cytotoxicity was expressed as the 50% cytotoxic concentration (CC5 0), representing the concentration of sample required to reduce cell viability by 50% relative to that of the untreated control.

[2] = tested on: HepG2: human liver hepatocellular carcinoma cells; assay: MTT cytotoxicity assay on HepG2 cells; format: cell-based
Method: as §1, §2, §3, §4, §5

[3] = tested on: TOV-21G: human ovarian adenocarcinoma cells; assay: MTT cytotoxicity assay on TOV-21G cells; format: cell-based
Method: as §1, §2, §3, §4, §5

HepG2 cells [4] = assay: Cell migration (wound), HepG2; format: cell-based, human; conditions: 4.62 and 9.25 μM, 48 h
Method: The cells were cultured in DMEM (Sigma-Aldrich, St. Louis, USA) and supplemented with 10% fetal bovine serum (Cultilab Ltda., Campinas, Brazil) and antibiotics (amphotericin). They were incubated at 37 °C in a humidified atmosphere with 5% CO2. Control cell groups, which were not exposed to the compound, were included in the experiments and were conducted in triplicate. The chalcone was dissolved in dimethyl sulfoxide (DMSO) for the assays.
Cells were seeded in 24-well plates at a density of 1.0 × 10^5 cells per well and incubated for 24 h to allow attachment. After this incubation, a sterile 200 μL pipet tip was used to scrape the cell monolayer, creating a wound. The initial wound area was photographed using an inverted microscope equipped with a camera. Following this, the cells were washed with Hanks’ solution and treated with the glycosylated chalcone at concentrations of 2.15, 4.62, 9.25, and 18.50 μM for 48 h. At the end of the treatment period, the cells were photographed again, and migration into the wound area was assessed. The percentage of cell migration was quantified using ImageJ and GraphPad Prism software.

HepG2 cells [5] = assay: Apoptosis/necrosis analysis (annexin V/PI), HepG2; format: cell-based, human; conditions: 2.15, 4.62, or 9.25 μM, 48 h
Method: (§6) Cells in the exponential growth phase were seeded in 12-well plates at a density of 1 × 10^5 cells per well in 3 mL of complete culture medium. Along with the experimental groups, four control groups were included: one without labeling, one labeled only with propidium iodide (PI), one labeled only with Annexin V, and one labeled with both PI and Annexin V. After 24 h, the cells were treated with the compound at concentrations of 2.15, 4.62, 9.25, and 18.50 μM for 48 h. Following the treatment period, the supernatant from each well was transferred to cytometry tubes and centrifuged at 1100 rpm for 10 min. The remaining adhered cells were washed with 1 mL of Hanks’ solution, and 500 μL of trypsin was added to detach the cells. The trypsin action was neutralized by adding 500 μL of complete medium, and the contents (detached cells plus precentrifuged supernatant) were collected into cytometry tubes, which were then centrifuged again at 1100 rpm for 10 min. After centrifugation, the supernatant was discarded. For labeling, Annexin V binding buffer was prepared by diluting 1 mL of component C in 5 mL of distilled water. Next, a 100 μg/mL propidium iodide working solution was prepared by diluting 5 μL of the 1 mg/mL stock (component B) in 45 μL of 1× buffer. […]

T24 cells = assay: Apoptosis/necrosis analysis (annexin V/PI), T24; format: cell-based, human; conditions: 18.50 μM, 48 h
Method: as §6

Compound: CCCc1cc(/C=C/C(=O)c2ccc(C)cc2)c(OC)c(OC)c1 [compound 3, (E)-3-(2,3-Dimethoxy-5-propylphenyl)-1-(p-tolyl)-prop-2-en-1-one]
- IC50 [1]: 55.5 ± 1.2 µM
- IC50 ([2]; Homo sapiens, HepG2, MTT, 72 h incubation, n = 3, NA: noncytotoxic at the concentrations tested): 4.5 ± 1.2 µM
- SI (HepG2) ([2]; IC50 MRC-5/IC50 HepG2): 12.2
- IC50 ([3]; Homo sapiens, TOV21G, MTT, 72 h incubation, n = 3, NA: noncytotoxic at the concentrations tested): 3 ± 2.6 µM
- SI (TOV-21G) ([3]; IC50 MRC-5/IC50 TOV-21G): 18.2
- cell migration, HepG2 (HepG2 cells [4]): reduction of cell migration
- percentage of apoptotic or necrotic cells, HepG2 (HepG2 cells [5]): did not result in a significant increase
- cell viability (annexin V/PI), T24 (T24 cells): reduced cell viability
- proportion of cells undergoing early apoptosis, T24 (T24 cells): increased the proportion of cells undergoing early apoptosis
